From PubChem BioAssay (NCI)
Where “and” joins values, the source holds several entries; their conditions need not be identical. Equal values may be shown once.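 1) Cells in 96-well plates. 2) Compound, 48 h, 5 concentrations. 3) Linear interpolation between surrounding doses. 4) Unreached endpoint = highest concentration. GI50 marks 50% less growth. TGI marks complete inhibition of growth.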 Where a SMILES comes first, the peptide text is derived from it. [ ]: non-standard residue; d: D form. Phe(4-Cl) = N[CH](Cc1ccc(Cl)cc1)C(=O)O

Columns and labels:
Assay in all cases: DTP human tumour cell line panel, 48 h
[1] = tested on: NCI-H23 lung
[2] = tested on: HT29 colon
[3] = tested on: SW-620 colon
[4] = tested on: RPMI-8226 leukemia
[5] = tested on: IGROV1 ovarian
[6] = tested on: HCC-2998 colon
[7] = tested on: OVCAR-3 ovarian
[8] = tested on: CCRF-CEM leukemia
[9] = tested on: MCF7 breast
[10] = tested on: PC-3 prostate

SMILES | TGI [1] | TGI [2] | TGI [3] | TGI [4] | TGI [5] [µM] | TGI [6] [µM] | TGI [7] | TGI [8] | TGI [9] [µM] | TGI [10] [µM] | GI50 [1] | GI50 [2] | GI50 [8] | GI50 [3] | GI50 [4] | GI50 [5] | GI50 [6] | GI50 [7]
Cc1ccc2nc3c(C(=O)NCCN(C)C)cccc3nc2c1 | 17.1 µM | 15.4 µM | > 35.7 µM | 40.8 µM | > 60.1 | 32.3 | 32.4 µM |  |  |  |  |  |  |  |  |  |  | 
CC1(n2nc(-c3ccccc3)n(-c3ccccc3)c2=O)CSC1 | > 100 µM | > 100 µM | > 100 µM | > 100 µM | > 100 | > 100 |  | > 100 µM |  |  |  |  |  |  |  |  |  | 
Cc1cc(SCC(=O)c2ccccc2)nc2ccccc12 | > 100 µM | > 100 µM | > 100 µM | > 100 µM | > 100 |  | > 100 µM |  | > 100 | > 100 |  |  |  |  |  |  |  | 
Cn1cc(C(=O)c2ccccc2)ccc1=O | > 100 µM | > 100 µM | > 100 µM | > 100 µM | > 100 | > 100 | > 100 µM | > 100 µM |  |  |  |  |  |  |  |  |  | 
Cc1noc(C)c1CCCOC1COc2ccccc2OCCOCCOc2ccccc2OC1 | > 100 µM | > 100 µM | > 100 µM |  | > 100 | > 100 | > 100 µM |  |  |  |  |  |  |  |  |  |  | 
CC(=O)[CH-]C(=O)c1ccccc1.CC(=O)[CH-]C(=O)c1ccccc1.O=C([O-])c1ccc([O-])cc1.O=C([O-])c1ccc([O-])cc1.[Ti+4] | > 100 µM | > 100 µM | > 100 µM | 62.8 µM | > 100 | > 100 | > 100 µM | 62.8 µM |  |  | 66.2 µM | 51.2 µM | 15.4 µM | 43 µM | 20.7 µM | 84.3 µM | 46.3 µM | 33.4 µM
CC(C)(C)OC(=O)Cc1ccc2c(ccn2Cc2ccccc2)c1 | > 100 µM | 36.4 µM | > 100 µM |  | > 100 | > 100 | > 100 µM | > 100 µM |  |  |  |  |  |  |  |  |  | 
Nc1ccc(/C=C/c2ccnc3ccccc23)cc1 | 50.1 µM | 65.1 µM | 97.7 µM | 52.7 µM | > 100 | 57.7 | 48.7 µM | 40.7 µM |  |  |  |  |  |  |  |  |  | 
CCCCCCCCCCCCCC1CCC(CC)N1 (centres undefined) | 32.9 µM | 15.1 µM | 29.6 µM | 36.8 µM | 36.1 | 18.7 | 30.2 µM | 18.2 µM |  |  |  |  |  |  |  |  |  | 
N.N.N.N.N.O=C([O-])c1nn[n-]n1.[Cl-].[Co+3] | > 100 µM | > 100 µM | > 100 µM | > 100 µM | > 100 | > 100 | > 100 µM | > 100 µM |  |  | > 100 µM | > 100 µM | > 100 µM | > 100 µM | > 100 µM | > 100 µM | > 100 µM | > 100 µM
COc1ccc2c(c1)C=C([N+](=O)[O-])C(C1OC(C)(C)OC1C1COC(C)(C)O1)O2 (centres undefined) | 24.2 µM | 4.34 µM | 6.81 µM | 4.54 µM | 31.7 | 27.7 | 21.8 µM | 4.2 µM | 9.12 |  |  |  |  |  |  |  |  | 
CN(C)P(=O)(/C(N)=N/Nc1ccc([N+](=O)[O-])cc1)N(C)C | > 100 µM |  | > 100 µM | > 100 µM |  | > 100 | > 100 µM | > 100 µM |  |  |  |  |  |  |  |  |  | 
CC(O)C(NC(=O)C(Cc1ccccc1)NC(=O)C(NC(=O)C(CCCCN)NC(=O)C(Cc1c[nH]c2ccccc12)NC(=O)C(Cc1ccc(O)cc1)NC(=O)C(Cc1ccc(Cl)cc1)NC(=O)C(N)Cc1ccccc1)C(C)O)C(N)=O (centres undefined) (H-F[Phe(4-Cl)]YWKTFT-NH2; configuration not given here) | 41.2 µM | 62.8 µM |  | 33.5 µM | 44.8 | 73.7 | 36.2 µM | 29.3 µM |  |  |  |  |  |  |  |  |  | 
NC1=NN(c2ccccc2)C(=O)C1C(=O)CCC(=O)Nc1cccc(C(F)(F)F)c1 (centres undefined) | > 100 µM | > 100 µM | > 100 µM |  | > 100 | > 100 | > 100 µM | > 100 µM |  |  |  |  |  |  |  |  |  | 
Cc1ccccc1N(CCC#N)C1=NN(C(=O)CC(=O)Nc2ccccc2)C(c2ccccc2)C1 (centres undefined) | > 100 µM | > 100 µM | > 100 µM | > 100 µM | > 100 | > 100 | > 100 µM | > 100 µM |  |  |  |  |  |  |  |  |  | 
COC(=O)C1=NC(=S)NC(c2ccccc2)C1c1nc2ccccc2s1 (centres undefined) | > 100 µM | > 100 µM | > 100 µM |  | > 100 | > 100 | > 100 µM | > 100 µM |  |  |  |  |  |  |  |  |  | 
CCOC1=NC(=O)CC(c2ccccc2)S1 (centres undefined) |  | > 100 µM | > 100 µM | > 100 µM | > 100 | > 100 | > 100 µM | > 100 µM |  |  |  |  |  |  |  |  |  | 
CCC[CH2][Sn]1([CH2]CCC)[O]C(=O)C(C(C)C)N=Cc2ccccc2[O]1 (centres undefined) | 0.534 µM | 2.21 µM | 0.318 µM |  | > 100 | 1.88 | 1.99 µM |  |  |  | 0.158 µM | 0.907 µM |  | 0.158 µM |  | 2.21 µM | 0.6 µM | 0.73 µM

SMILES | TGI [1] | TGI [2] | TGI [3] | TGI [4] | TGI [5] [µM] | TGI [6] [µM] | TGI [7] | TGI [8] | TGI [9] [µM] | TGI [10] [µM] | GI50 [1] | GI50 [2] | GI50 [8] | GI50 [3] | GI50 [4] | GI50 [5] | GI50 [6] | GI50 [7]
Cc1ccc(Nc2nc3c(s2)C(=O)c2ccccc2C3=O)c(C)c1 | 25.6 µM | 48.3 µM | 43.5 µM | 45.6 µM | 33.1 | 31.8 | 27.5 µM | 25.8 µM |  |  |  |  |  |  |  |  |  | 
O=C(O)CP(=S)(S)c1ccccc1 (centres undefined) | > 100 µM | > 100 µM | > 100 µM |  |  |  |  | > 100 µM |  |  |  |  |  |  |  |  |  | 
COC(=O)c1cccc2cccc(C(=O)Nc3ccc(C)cc3C)c12 | > 100 µM | > 100 µM | > 100 µM | > 100 µM | > 100 | > 100 | > 100 µM | > 100 µM |  |  |  |  |  |  |  |  |  | 
CC(C)N(C(=O)C12CC3CC(CC(C3)C1)C2)C(C)C | > 50 µM | > 50 µM | > 50 µM | > 50 µM | > 50 | > 50 | > 50 µM | > 50 µM |  |  |  |  |  |  |  |  |  | 
CC(=O)OC[C@]12CC[C@H]3[C@@H](C[C@H]4O[C@]45[C@@H](O)C=CC(=O)[C@]35C)[C@@H]1CC[C@@H]2[C@H](C)[C@H]1CC(C)=C(C)C(=O)O1 | 0.371 µM and 0.858 µM | 0.716 µM and 0.961 µM | 0.744 µM and 0.463 µM | 0.846 µM and 0.446 µM | 2.7 | 2.07 | 0.842 µM and 0.548 µM | 0.745 µM and 1.82 µM |  |  | 0.185 µM and 0.324 µM | 0.302 µM and 0.305 µM | 0.229 µM and 0.112 µM | 0.274 µM and 0.141 µM | 0.26 µM and 0.107 µM | 0.706 µM and 0.924 µM | 0.822 µM and 0.795 µM | 0.314 µM and 0.176 µM
COc1cc(OC(=O)c2c(O)cc(O)c(O)c2C)cc(C)c1C(=O)Oc1cc(C)c(C(=O)O)c(O)c1 | > 100 µM | > 100 µM | > 100 µM | > 100 µM | > 100 | > 100 | > 100 µM | > 100 µM |  |  |  |  |  |  |  |  |  | 
CCOC(=O)CN=c1nc(SC)sc2c(C(=O)OCC)nc(Sc3ccccc3)n12 |  | > 100 µM | > 100 µM | > 100 µM | > 100 | > 100 | > 100 µM | > 100 µM |  |  |  |  |  |  |  |  |  | 
O=C(O)CN(c1ccccc1)S(=O)(=O)c1ccccc1[N+](=O)[O-] | > 100 µM | > 100 µM | > 100 µM | > 100 µM | > 100 |  | > 100 µM | > 100 µM |  |  |  |  |  |  |  |  |  | 
CCOC(=O)NC(=O)c1cn(CCOCCOC(=O)NCCCCCCNC(=O)OCCOCCn2cc(C(=O)NC(=O)OCC)c(=O)[nH]c2=O)c(=O)[nH]c1=O | > 100 µM | > 100 µM | > 100 µM | > 100 µM | > 100 | > 100 | > 100 µM |  |  |  |  |  |  |  |  |  |  | 
COc1c2c(cc3nc4ccccc4nc13)CCC(C(C)(C)O)C2 (centres undefined) | > 100 µM | > 100 µM | > 100 µM |  | > 100 | > 100 | > 100 µM | > 100 µM |  |  |  |  |  |  |  |  |  | 
Cc1cc(C)nc(NS(=O)(=O)c2ccc(Nc3c4ccccc4nc4c(C(=O)Nc5ccc(S(=O)(=O)Nc6cc(C)on6)cc5)cccc34)cc2)n1 | 51.1 µM | 35.5 µM | 51.4 µM | 56.3 µM | 77.1 | 30.9 | 33.3 µM |  |  |  |  |  |  |  |  |  |  | 
CN(C)CC/C(=N\Nc1c(Cl)cccc1Cl)c1ccccc1 | 33.4 µM | 29.3 µM | 36.8 µM | 46.8 µM | 92.4 |  | 65.9 µM | 79.3 µM |  |  |  |  |  |  |  |  |  | 
Cc1cccc(NC(=O)C(=O)Cc2nc3ccccc3[nH]c2=O)c1C | > 100 µM | > 100 µM | > 100 µM |  | > 100 | > 100 | > 100 µM | > 100 µM |  |  |  |  |  |  |  |  |  | 
CC(C)=CCC/C(=C/CC/C(C)=C/CCc1ccoc1)C(=O)O | > 100 µM | > 100 µM | > 100 µM |  |  | > 100 | > 100 µM | > 100 µM |  |  |  |  |  |  |  |  |  | 
C[N+](C)(C)CC1CCCC(C[N+](C)(C)C)C1=O (centres undefined) | 5.84 µM | 14.2 µM |  | 0.256 µM | 11.5 | 8.63 | 1.36 µM | 1.28 µM |  | 10.3 |  |  |  |  |  |  |  | 
CC[O-].CC[O-].O=C1c2ccccc2C(=O)c2c(O)ccc([O-])c21.O=C1c2ccccc2C(=O)c2c(O)ccc([O-])c21.[Ti+4] | > 100 µM | > 100 µM | > 100 µM | > 100 µM | > 100 |  | > 100 µM | > 100 µM |  |  |  |  |  |  |  |  |  | 
CC1=C(C)CC2(CCCCC2=O)S(=O)C1 (centres undefined) | > 100 µM | > 100 µM | > 100 µM | > 100 µM | > 100 | > 100 | > 100 µM | > 100 µM |  |  |  |  |  |  |  |  |  | 
